According to US20230190857A1, “PEPTIDE WITH AMIDATED CARBOXY TERMINUS HAVING MELANOGENESIS INHIBITORY ACTIVITY AND COMPOSITION COMPRISING SAME” (RUBY CROWN CO. LTD., priority 2018, published 2023):
Entries after “also recorded” stand apart in the source; their conditions may differ. Ends that are not written are not given here. Peptide text beside a SMILES is read from it.

Assays:
B16-F10 cells [1] = assay: Melanogenesis inhibitory activity (melanin content) in B16-F10 cells stimulated with α-MSH; type: cell-based, murine; details: for melanogenesis inhibitory effect of short peptides (melanin content): peptide 30 μM to 100 μM, FIG. 4a; for melanogenesis inhibitory effect of glycine derivatives (melanin content): various concentrations, FIG. 5a
Description: (§1) Cells were cultured in a humidified incubator at 37° C. and 5% CO2. Murine melanoma B16-F10 cell lines were cultured in Dulbecco' Modified Eagle Medium containing 10% fetal bovine serum and antibiotics (100 U/mL of penicillin, 0.1 mg/mL of streptomycin and 0.25 μg/mL of amphotericin B), which were purchased from the American Type Culture Collection (Manassas, Va., USA). A human epidermal melanocyte (HEM), derived from a pigmented human neonatal foreskin, was purchased from Cascade Biologics (Portland, Oreg., USA) and cultured in medium 254 containing human melanocyte growth supplements (Cascade Biologics) and antibiotics.
(§2) A melanin formation inhibitory effect of the peptide to be analyzed was confirmed by using B16-F10 cell lines and HEM. The B16-F10 cells were treated with test peptides at various concentrations and stimulated for 72 hours by using 100 nM of α-MSH. Hexapeptide B6 (Phe-Ser-His-His-Leu-Gly-NH2) (SEQ ID NO: 20), p-coumaric acid and arbutin were used as a control group. A level of extracellular melanin was measured by using a conditioned medium in which cells were previously cultured. Intracellular melanin was extracted at 60° C. for 60 minutes by using 1.0 M NaOH. A content of melanin was spectroscopically measured by measuring absorbance at 475 nm and resultant values were normalized with regard to a total protein content of cells by using Bio-Rad DC assay.

[2] = test system: human epidermal melanocyte (HEM); assay: Cell viability, MTT assay, HEMs; type: cell-based; details: FIG. 6b
Description: (§3) Cell viability was measured by using a 3-(4,5-dimethylthiazol-2-yl)-2,5-diphenyltetrazolium bromide (MTT) assay. B16-F10 cell lines were treated with test peptides at various concentrations for 72 hours. The cells were washed with PBS and cultured in 100 μl of culture fluid, to which 1 mg/mL of MTT (Amresco, Solon, Ohio, USA) was added, for three hours. After that, the culture fluid was removed therefrom and formazan accumulated inside the cells was extracted with 100 μl of dimethyl sulfoxide (DMSO). Absorbance of the extracted solution was measured at 595 nm by using SPECTROstar Nano microplate reader (BMG LABTECH GmbH, Ortenberg, Germany).
(§4) After the B16-F10 cells and HEM were treated with the peptides of Examples 1 to 4 according to the same method, cell viability was measured and the results thereof were summarized in FIGS. 1b, 2b, 3b, 4b, 5b, 6b and 7a respectively.

[3] = test system: human epidermal melanocyte (HEM); assay: Melanogenesis inhibitory activity (intracellular and extracellular melanin) in HEMs stimulated with α-MSH; type: cell-based; details: FIG. 6a
Description: as §1
as §2, with “assay. […]” for “assay.”

tyrosinase (TYR) [4] = assay: TYR activity assay in cell-free extract of treated B16-F10 cells; type: cell-based, murine; details: treated 60 minutes, then 100 nM α-MSH 24 hours, FIG. 8a
Description: B16-F10 cells were treated with glycinamide-HCl for 60 minutes and stimulated for 24 hours by using 100 nM of α-MSH. The cells were dissolved in 10 mM of cold Tris-HCl buffer solution (pH 7.4) containing 120 mM of sodium chloride, 25 mM of potassium chloride, 2.0 mM of ethylene glycol tetraacetic acid, 1.0 mM of ethylenediaminetetraacetic acid, 0.5% triton X-100, protease inhibitor cocktail (Roche, Mannheim, Germany). Cytolysate was centrifuged at 13,000×g at 4° C. for 15 minutes to obtain a cell-free extract therefrom. TYR activity was measured by using L-tyrosine and L-3,4-dihydroxyphenylalanine. A reaction mixture (200 μL) includes 100 mM of sodium phosphate (pH 6.8), 1.0 mM of L-tyrosine, 42 μM of L-3,4-dihydroxy phenylalanine and a cell-free extract (40 μg of protein), which was cultured at 37° C. A change in absorbance was measured at 475 nm by using Spectrostar Nano microplate reader.

[5] = test system: tyrosinase-related protein 1 (TYRP1); assay: Western blotting, TYRP1 protein level in B16-F10 cells; type: cell-based, murine; details: both in the presence and in the absence of α-MSH, FIG. 8b
Description: (§5) Western blotting was performed as described in a document [Study on phenolic compounds and novel peptides inhibiting UVB- and PM10-induced MMP1 expression and melanogenesis in skin cells. PhD Thesis 2017. Kyungpook National University, Korea]. B16-F10 cells were dissolved in 10 mM of cold Tris-HCl buffer solution (pH 7.2) containing 150 mM of NaCl, 5 mM of EDTA, 0.1% sodium dodecyl sulfate (SDS), 1% triton X-100, 1% deoxycholate, 1 mM of phenylmethylsulphonyl fluoride and protease inhibitor cocktail (Roche). A part of cytolysate (30 μg of protein) was mixed with Laemmli sample buffer, then heated at 95° C. for five minutes to be denaturalized, and then was subject to electrophoresis in 10% SDS-polyacrylamide gel. After the electrophoresis, protein was transferred from gel to polyvinylidene difluoride membrane (Amersham Pharmacia, Little Chalfont, UK). Primary antibodies for TYR, TYRP1, DCT, MITF and @-actin were purchased from Santa Cruz Biotechnology (Santa Cruz, Calif., USA). Primary antibodies for CREB, phospho-CREB (Ser133), extracellular signal-regulated kinase (ERK) and phospho-ERK (Thr202/Tyr204) were purchased from Cell Signaling (located in Danvers, Mass., USA). […] A protein band was visualized by using picoEPD Western Reagent kit (Elpis-Biotech, Daejeon, South Korea), and a depth of image was analyzed by using National Institutes of Health ImageJ program.

[6] = test system: cAMP-responsive element binding protein (CREB); assay: Western blotting, phosphorylation of CREB in B16-F10 cells; type: cell-based, murine; details: stimulated with α-MSH, FIG. 9a
Description: as §5, with “program. […]” for “program.”

[7] = test system: extracellular signal-regulated kinase (ERK); assay: Western blotting, phosphorylation of ERK in B16-F10 cells; type: cell-based, murine; details: stimulated with α-MSH, FIG. 9a
Description: as §5, with “program. […]” for “program.”

tyrosinase (TYR) [8] = assay: Western blotting, TYR protein level in B16-F10 cells; type: cell-based, murine; details: both in the presence and in the absence of α-MSH, FIG. 8b
Description: as §5

B16-F10 cells [9] = assay: Cell viability, MTT assay, B16-F10 cells; type: cell-based, murine; details: up to 300 μM, FIG. 7a
Description: as §3, §4

[10] = test system: dopachrometautomerase (DCT); assay: Western blotting, DCT protein level in B16-F10 cells; type: cell-based, murine; details: both in the presence and in the absence of α-MSH, FIG. 8b
Description: as §5

[11] = test system: microphthalmia-associated transcription factor (MITF); assay: Western blotting, MITF protein level in B16-F10 cells; type: cell-based, murine; details: stimulated with α-MSH, FIG. 9b
Description: as §5, with “program. […]” for “program.”

Leu-Trp-Gly-NH2 [E6]
melanogenesis inhibitory effect of short peptides (melanin content) (B16-F10 cells [1]; 100 nM α-MSH, 72 hours): melanogenesis inhibitory activity higher than that of other tripeptides

CC(C)C[C@H](NC(=O)[C@@H](N)CCCNC(=N)N)C(=O)N[C@@H](Cc1c[nH]c2ccccc12)C(=O)NCC(N)=O [D5, Arg-Leu-Trp-Gly-NH2] (H-RLWG-NH2)
HEMs cell viability / cytotoxicity [2]: almost no cytotoxicity

NCC(=O)O [free glycine, glycine, reference compound]
melanogenesis inhibitory effect of glycine derivatives (melanin content) (B16-F10 cells [1]; 100 nM α-MSH, 72 hours): no activity

NC(=O)CNC(=O)[C@@H](N)Cc1c[nH]c2ccccc12 [F1, Trp-Gly-NH2] (H-Trp-Gly-NH2)
HEMs cell viability / cytotoxicity [2]: almost no cytotoxicity

NCC(N)=O [G1, glycinamide]
HEMs cell viability / cytotoxicity [2]: almost no cytotoxicity
melanogenesis inhibitory effect of glycine derivatives (melanin content) (B16-F10 cells [1]; 100 nM α-MSH, 72 hours): maintains anti-melanogenesis activity
increase in content of intracellular and extracellular melanins in HEMs [3]: weakened

N=C(N)NCCC[C@H](N)C(=O)N[C@@H](Cc1ccccc1)C(=O)N[C@@H](Cc1c[nH]c2ccccc12)C(=O)NCC(N)=O [D3, Arg-Phe-Trp-Gly-NH2] (H-RFWG-NH2)
HEMs cell viability / cytotoxicity [2]: almost no cytotoxicity

Arg-Trp-Gly-NH2 [E7]
melanogenesis inhibitory effect of short peptides (melanin content) (B16-F10 cells [1]; 100 nM α-MSH, 72 hours): melanogenesis inhibitory activity higher than that of other tripeptides

Phe-Arg-Trp-Gly (FRWG-NH2) [D9]
melanogenesis inhibitory activity compared with p-coumaric acid and arbutin (B16-F10 cells [1]; peptide 10-30 μM, 100 nM α-MSH, 72 hours, molar comparison, FIG. 3a): melanogenesis inhibitory activity at a concentration lower than that of p-coumaric acid and arbutin; also recorded: the most powerful melanogenesis inhibitory effect

Cl.NCC(N)=O [glycinamide-HCl]
TYR activity increased by α-MSH (tyrosinase (TYR) [4]): significantly weakened
protein level of TYRP1 [5]: significantly reduced
phosphorylation of CREB [6]: inhibited
level of intracellular and extracellular melanins (B16-F10 cells [1]; 25-100 μM, cells stimulated with α-MSH, FIG. 7b): reduced
phosphorylation of ERK [7]: did not affect
protein level of TYR (tyrosinase (TYR) [8]): significantly reduced
cytotoxicity in B16-F10 cells (B16-F10 cells [9]): did not cause any cytotoxicity
protein level of DCT [10]: significantly reduced
level of MITF expression increased by α-MSH [11]: weakened

Phe-Ser-His-His-Leu-Gly-NH2 (FSHHLG-NH2) [Hexa-peptide B6, reference compound]
melanogenesis inhibitory effect of individual tetrapeptides (melanin content) (B16-F10 cells [1]; peptide 30 μM and 100 μM, 100 nM α-MSH, 72 hours, FIG. 2a): showed a melanogenesis inhibitory effect at 100 μM only

Phe-Trp-Gly-NH2 [E5]
melanogenesis inhibitory effect of short peptides (melanin content) (B16-F10 cells [1]; 100 nM α-MSH, 72 hours): melanogenesis inhibitory activity higher than that of other tripeptides
increase in content of intracellular and extracellular melanins in HEMs [3]: weakened
